Experimental data as given in patent publication US11192867B2, “Microbiocidal oxadiazole derivatives” (SYNGENTA PARTICIPATIONS AG, priority 2016, dated 2021).

How the values were obtained:
[1] = test system: Puccinia recondita f. sp. Tritici; assay: Fungicidal activity against Puccinia recondita f. sp. Tritici / wheat / leaf disc preventative (brown rust); type: in vivo; settings: foliar, 200 ppm in the applied formulation, wheat leaf segments cv. Kanzler, inoculated 1 day after application, vs untreated control, read-out: disease control
Procedure, shortened: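 Wheat cv. Kanzler leaf segments on agar sprayed with diluted compound, inoculated with brown rust spores 1 day later. Kept at 19° C., 75% rh, 12 h light/dark; percent disease control versus untreated segments scored 7 to 9 days after application, compounds tested at 200 ppm.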

Phakopsora pachyrhizi = assay: Fungicidal activity against Phakopsora pachyrhizi / soybean / leaf disc preventative (Asian soybean rust); type: in vivo; settings: foliar, 200 ppm in the applied formulation, soybean leaf disks, vs untreated control, read-out: disease control
Procedure, shortened: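 Soybean leaf discs on water agar sprayed with compound diluted in water, then inoculated with spores on the lower surface one day later. Kept 24-36 h dark, 20 °C, 75% rh, then 12 h light/12 h dark. Percent disease control versus untreated scored 12-14 days after application.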

[2] = test system: Glomerella lagenarium (Colletotrichum lagenarium); assay: Fungicidal activity against Glomerella lagenarium (Colletotrichum lagenarium) liquid culture / cucumber / preventative (anthracnose); type: cell-based; settings: Colletotrichum orbiculare, 72 h; 20 ppm in the applied formulation; liquid culture (PDB), growth inhibition measured photometrically 3 to 4 days after application; vs untreated control; read-out: disease control
Procedure, shortened: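 Cryostored conidia mixed into potato dextrose broth and added to DMSO compound solution in microtiter plates. Incubated at 24 °C. Growth inhibition read photometrically 3–4 days after application as percent activity versus untreated check.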

[3] = test system: Puccinia recondita f. sp. Tritici; assay: Fungicidal activity against Puccinia recondita f. sp. Tritici / wheat / leaf disc curative (brown rust); type: in vivo; settings: foliar, 24 h, 200 ppm in the applied formulation, wheat leaf segments cv. Kanzler, applied 1 day after inoculation, vs untreated control, read-out: disease control
Procedure, shortened: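 Curative test: wheat leaf segments cv. Kanzler on agar inoculated with spore suspension, kept dark at 19 °C/75% RH, then sprayed 1 day post-inoculation with compound diluted in water. Incubated at 19 °C, 75% RH, 12 h light/dark; percent disease control versus untreated scored 6–8 days after application.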

melting point [°C]	SMILES	pest or weed control at 200 ppm [1] [%]	pest or weed control at 200 ppm (Phakopsora pachyrhizi) [%]	inhibition of growth at 20 ppm [2] [%]	pest or weed control at 200 ppm [3] [%]
119 to 121	CON=CC(C)NC(=O)c1ccc(-c2noc(C(F)(F)F)n2)c(F)c1 (centres unmarked) [Compound 1.159, 3-fluoro-N-(2-methoxyimino-1-methyl-ethyl)-4-[5-(trifluoromethyl)-1,2,4-oxadiazol-3-yl]benzamide]	≥ 80	≥ 80	≥ 80	≥ 80
103 to 108	CON=CCCNC(=O)c1ccc(-c2noc(C(F)(F)F)n2)c(F)c1 [Compound 1.160, 3-fluoro-N-(3-methoxyiminopropyl)-4-[5-(trifluoromethyl)-1,2,4-oxadiazol-3-yl]benzamide]	≥ 80	≥ 80	≥ 80	≥ 80
108 to 110	CCON=CCCNC(=O)c1ccc(-c2noc(C(F)(F)F)n2)c(F)c1 [Compound 1.161, N-(3-ethoxyiminopropyl)-3-fluoro-4-[5-(trifluoromethyl)-1,2,4-oxadiazol-3-yl]benzamide]	≥ 80	≥ 80	≥ 80	≥ 80
97 to 99	CCON=CCCNC(=O)c1ccc(-c2noc(C(F)(F)F)n2)cc1F [Compound 1.162, N-(3-ethoxyiminopropyl)-2-fluoro-4-[5-(trifluoromethyl)-1,2,4-oxadiazol-3-yl]benzamide]	≥ 80	≥ 80	≥ 80	≥ 80
98 to 100	CON=CCCNC(=O)c1ccc(-c2noc(C(F)(F)F)n2)cc1F [Compound 1.163, 2-fluoro-N-(3-methoxyimino-propyl)-4-[5-(trifluoromethyl)-1,2,4-oxadiazol-3-yl]benzamide]	≥ 80	≥ 80	≥ 80	≥ 80
131 to 134	CON=C(C)CNC(=O)c1ccc(-c2noc(C(F)(F)F)n2)c(F)c1 [Compound 1.164, 3-fluoro-N-(2-methoxyimino-propyl)-4-[5-(trifluoromethyl)-1,2,4-oxadiazol-3-yl]benzamide]	≥ 80	≥ 80	≥ 80	≥ 80
120 to 124	CCON=C(C)CNC(=O)c1ccc(-c2noc(C(F)(F)F)n2)c(F)c1 [Compound 1.165, N-(2-ethoxyiminopropyl)-3-fluoro-4-[5-(trifluoromethyl)-1,2,4-oxadiazol-3-yl]benzamide]	≥ 80	≥ 80	≥ 80	≥ 80
120 to 122	CON=CCNC(=O)c1ccc(-c2noc(C(F)(F)F)n2)c(F)c1 [Compound 1.166, 3-fluoro-N-(2-methoxyimino-ethyl)-4-[5-(trifluoromethyl)-1,2,4-oxadiazol-3-yl]benzamide]	≥ 80	≥ 80	≥ 80	≥ 80
89 to 91	C#CCO/N=C/CCNC(=O)c1ccc(-c2noc(C(F)(F)F)n2)cc1 [Compound 1.167, N-[(3E)-3-prop-2-ynoxyiminopropyl]-4-[5-(trifluoromethyl)-1,2,4-oxadiazol-3-yl]benzamide]	≥ 80	≥ 80	≥ 80	≥ 80
122 to 124	CC(C)ON=CCCNC(=O)c1ccc(-c2noc(C(F)(F)F)n2)cc1 [Compound 1.168, N-(3-isopropoxyimino-propyl)-4-[5-(trifluoromethyl)-1,2,4-oxadiazol-3-yl]benzamide]	≥ 80	≥ 80	≥ 80	≥ 80
